Experimental data taken from ChEMBL document CHEMBL1123816, “Synthesis and antidepressant properties of novel 2-substituted 4,5-dihydro-1H-imidazole derivatives” (J Med Chem, 1987).

Legend:
[1] = target: T1, Adrenergic receptor alpha-2 (Rattus norvegicus, UniProt P22086+P19328+P22909); test: In vitro antagonistic activity against alpha-2 adrenergic receptor in isolated electrically stimulated rat vas deferens (clonidine-induced decrease in twitch height); type: functional, tissue-based
T1 sequence (P22086 whole entry): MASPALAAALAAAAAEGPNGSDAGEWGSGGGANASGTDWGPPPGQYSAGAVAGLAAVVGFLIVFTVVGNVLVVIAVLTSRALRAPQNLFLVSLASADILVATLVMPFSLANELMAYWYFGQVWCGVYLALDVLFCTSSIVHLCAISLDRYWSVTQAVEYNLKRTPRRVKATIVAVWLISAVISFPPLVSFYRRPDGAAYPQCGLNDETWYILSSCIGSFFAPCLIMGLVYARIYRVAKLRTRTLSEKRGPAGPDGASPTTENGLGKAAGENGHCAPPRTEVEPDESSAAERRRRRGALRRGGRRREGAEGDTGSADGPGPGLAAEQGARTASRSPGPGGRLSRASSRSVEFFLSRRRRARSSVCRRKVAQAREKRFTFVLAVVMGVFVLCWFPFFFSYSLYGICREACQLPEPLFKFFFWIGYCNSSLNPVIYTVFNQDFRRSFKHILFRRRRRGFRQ
T1 sequence (P19328 whole entry): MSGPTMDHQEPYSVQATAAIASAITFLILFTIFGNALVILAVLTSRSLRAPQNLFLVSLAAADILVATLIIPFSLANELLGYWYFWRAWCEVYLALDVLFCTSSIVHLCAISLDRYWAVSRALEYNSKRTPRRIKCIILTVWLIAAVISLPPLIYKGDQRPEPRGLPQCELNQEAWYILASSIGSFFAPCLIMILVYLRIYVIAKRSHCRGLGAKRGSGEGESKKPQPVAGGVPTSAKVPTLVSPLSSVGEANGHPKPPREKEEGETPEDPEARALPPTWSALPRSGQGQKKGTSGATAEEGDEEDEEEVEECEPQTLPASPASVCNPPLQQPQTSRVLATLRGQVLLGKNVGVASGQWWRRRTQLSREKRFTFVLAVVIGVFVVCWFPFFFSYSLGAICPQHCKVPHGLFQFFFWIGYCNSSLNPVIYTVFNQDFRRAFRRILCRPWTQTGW
T1 sequence (P22909 whole entry): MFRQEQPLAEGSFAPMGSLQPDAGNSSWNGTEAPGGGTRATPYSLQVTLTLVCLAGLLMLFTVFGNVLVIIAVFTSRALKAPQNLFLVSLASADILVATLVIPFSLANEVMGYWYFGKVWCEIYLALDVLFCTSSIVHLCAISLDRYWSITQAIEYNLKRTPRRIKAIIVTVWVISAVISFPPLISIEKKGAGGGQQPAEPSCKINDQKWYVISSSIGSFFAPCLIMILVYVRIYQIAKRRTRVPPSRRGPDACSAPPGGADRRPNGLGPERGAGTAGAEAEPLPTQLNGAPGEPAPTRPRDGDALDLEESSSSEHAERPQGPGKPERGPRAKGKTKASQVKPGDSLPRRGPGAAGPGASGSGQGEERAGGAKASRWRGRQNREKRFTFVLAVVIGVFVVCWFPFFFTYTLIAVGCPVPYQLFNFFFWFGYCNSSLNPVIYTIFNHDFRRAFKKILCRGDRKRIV

[2] = target: T1, Adrenergic receptor alpha-2; test: Ability to displace [3H]clonidine from alpha-2 adrenergic receptor in rat brain homogenates in vitro; type: tissue-based
[3] = target: T2, Adrenergic receptor alpha-1 (Rattus norvegicus, UniProt P15823+P23944+P43140); test: In vitro antagonistic activity against alpha-1 adrenergic receptor in isolated unstimulated rat vas deferens (methoxamine-induced contractions)
T2 sequence (P15823 whole entry): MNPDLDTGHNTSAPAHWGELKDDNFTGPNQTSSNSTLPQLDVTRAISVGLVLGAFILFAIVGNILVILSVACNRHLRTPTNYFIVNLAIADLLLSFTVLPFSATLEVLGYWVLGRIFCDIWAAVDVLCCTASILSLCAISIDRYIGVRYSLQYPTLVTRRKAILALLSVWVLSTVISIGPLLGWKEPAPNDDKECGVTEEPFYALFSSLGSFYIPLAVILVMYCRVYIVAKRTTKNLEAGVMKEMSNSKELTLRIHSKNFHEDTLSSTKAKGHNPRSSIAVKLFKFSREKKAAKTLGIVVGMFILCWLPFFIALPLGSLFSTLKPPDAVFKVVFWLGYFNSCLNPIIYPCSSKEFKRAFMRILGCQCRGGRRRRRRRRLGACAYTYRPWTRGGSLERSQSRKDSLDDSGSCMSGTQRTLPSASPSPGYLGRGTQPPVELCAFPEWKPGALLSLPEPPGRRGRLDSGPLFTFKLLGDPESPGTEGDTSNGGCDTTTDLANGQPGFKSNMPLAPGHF
T2 sequence (P23944 whole entry): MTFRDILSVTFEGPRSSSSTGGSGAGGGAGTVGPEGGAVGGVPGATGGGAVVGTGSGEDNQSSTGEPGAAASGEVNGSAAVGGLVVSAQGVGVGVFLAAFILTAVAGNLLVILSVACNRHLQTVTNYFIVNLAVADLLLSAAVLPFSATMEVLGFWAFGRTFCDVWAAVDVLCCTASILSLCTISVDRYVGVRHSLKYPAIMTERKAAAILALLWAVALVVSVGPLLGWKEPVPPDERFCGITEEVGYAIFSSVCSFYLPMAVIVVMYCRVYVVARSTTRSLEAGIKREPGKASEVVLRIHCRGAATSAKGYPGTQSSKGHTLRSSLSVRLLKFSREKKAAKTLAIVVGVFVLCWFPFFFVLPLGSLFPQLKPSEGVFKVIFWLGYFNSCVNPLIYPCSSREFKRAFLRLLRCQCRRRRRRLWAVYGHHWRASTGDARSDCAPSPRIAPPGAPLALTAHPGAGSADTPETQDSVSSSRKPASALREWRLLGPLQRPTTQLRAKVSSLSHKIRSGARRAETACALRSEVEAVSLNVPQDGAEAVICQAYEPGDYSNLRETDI
T2 sequence (P43140 whole entry): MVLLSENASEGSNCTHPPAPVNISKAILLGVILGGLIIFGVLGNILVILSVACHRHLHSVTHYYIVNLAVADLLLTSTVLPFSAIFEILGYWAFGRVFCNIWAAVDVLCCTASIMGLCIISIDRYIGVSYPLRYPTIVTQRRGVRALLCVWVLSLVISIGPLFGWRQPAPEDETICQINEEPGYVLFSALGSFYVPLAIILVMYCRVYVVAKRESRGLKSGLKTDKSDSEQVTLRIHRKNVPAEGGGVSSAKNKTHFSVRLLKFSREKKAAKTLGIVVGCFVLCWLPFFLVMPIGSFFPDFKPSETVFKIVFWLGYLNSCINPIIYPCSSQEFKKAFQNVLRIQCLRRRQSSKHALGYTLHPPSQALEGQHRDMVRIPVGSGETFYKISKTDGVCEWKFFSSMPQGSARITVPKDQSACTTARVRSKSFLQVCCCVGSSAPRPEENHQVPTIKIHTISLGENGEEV

Compound | pA2 [1] | Ki [2] | pA2 [3]
CC1=C(CC2=NCCN2)CCc2ccccc21.Cl | 7.19 | 12 nM | 7.08
C1=C(CC2=NCCN2)CCc2ccccc21.Cl [NAPAMEZOLE HYDROCHLORIDE] | 7.76 | 23 nM | 6.87
